According to US10906876B2, “Tetrahydroisoquinolines as selective NADPH oxidase 2 inhibitors” (University of Pittsburgh—Of the Commonwealth System of …, priority 2013, dated 2021):

How the values were obtained:
Nox1 = target: T1, Nox1 (Homo sapiens, UniProt Q9Y5S8); assay: Constitutive Nox1 activity in transiently transfected COS-Nox1/NOXO1/NOXA1 cells, L-012 assay; format: cell-based; conditions: for IC50: constitutive activity, transiently transfected Cos-Nox1 cells, L-012, read-out: IC50 of ROS generation, Nox1 (L-012 assay); for Nox1 inhibitory activity: Table 2
T1 construct: Plasmids encoding full-length human cDNAs for Nox1 (pcDNA3.1-hNox1); expressed in transfected cells; host or cells: COS-22 (COS-7 stably expressing human p22phox), transient co-transfection
T1 sequence (Q9Y5S8 1-564): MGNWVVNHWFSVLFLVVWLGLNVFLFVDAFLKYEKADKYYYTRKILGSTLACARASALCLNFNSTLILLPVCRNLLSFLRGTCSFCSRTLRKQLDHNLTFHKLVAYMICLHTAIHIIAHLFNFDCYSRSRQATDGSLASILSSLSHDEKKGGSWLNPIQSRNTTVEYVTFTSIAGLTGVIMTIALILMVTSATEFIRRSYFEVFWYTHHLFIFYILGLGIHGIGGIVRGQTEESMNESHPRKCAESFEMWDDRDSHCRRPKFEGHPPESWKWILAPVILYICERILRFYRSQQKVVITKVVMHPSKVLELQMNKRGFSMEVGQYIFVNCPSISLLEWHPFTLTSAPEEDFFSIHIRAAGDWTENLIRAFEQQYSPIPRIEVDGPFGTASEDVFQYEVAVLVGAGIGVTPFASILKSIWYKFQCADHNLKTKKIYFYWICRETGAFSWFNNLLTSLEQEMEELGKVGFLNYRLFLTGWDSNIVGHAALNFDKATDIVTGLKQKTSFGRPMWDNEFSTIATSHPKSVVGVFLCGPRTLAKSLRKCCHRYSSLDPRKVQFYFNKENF
T1 sequence (P13498 2-195 partner limits assumed): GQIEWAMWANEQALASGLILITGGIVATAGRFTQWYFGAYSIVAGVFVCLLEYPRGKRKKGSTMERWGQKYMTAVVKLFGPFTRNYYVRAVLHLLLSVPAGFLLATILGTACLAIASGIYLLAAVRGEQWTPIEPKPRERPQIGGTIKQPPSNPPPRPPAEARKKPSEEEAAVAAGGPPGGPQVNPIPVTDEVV
Description: Plasmids encoding full-length human cDNAs for Nox1 (pcDNA3.1-hNox1), NOXO1 (pcDNA3.1-hNOXO1), NOXA1 (pCMVsport 6-hNOXA1), p47phox (pCMV-Tag4A-hp47) and Nox4 (pcDNA3-hNox4) were kindly provided by Dr. David Lambeth (Emory University, Ga.). Plasmids encoding Nox1, NOXO1, or NOXA1 were transformed and amplified into Escherichia coli strain TOP10 (Invitrogen, Carlsbad, Calif.). Plasmids were purified using a QIAfilter plasmid purification kit (QIAGEN Inc., Valencia, Calif.). For human Nox4 expression, the BglII/NotI restriction fragment from the pcDNA3-hNox4 was subcloned into the plasmid pcDNA3.1/Hygro(−) (Invitrogen, Carlsbad, Calif.) to generate pcDNA3.1/Hygro-hNox4. The fragment sequence, in-frame insertion and orientation were validated by DNA sequencing after PCR amplification. pcDNA3.1/Hygro-hNox4 was amplified into Escherichia coli strain TOP10 and purified with a QIAfilter plasmid purification kit.
Cell transfection was carried out using Lipofectamine LTX and Plus reagent (Invitrogen, Carlsbad, Calif., USA), according to the manufacturer's instructions. COS-22 cells were transiently co-transfected with pcDNA 3.1-hNox1, pCMVsport 6-hNOXA1 and pcDNA3.1-hNoxO1 (COS-Nox1/NOXO1/NOXA1 cells) or with pcDNA3.1/Hygro-hNox4 (COS-Nox4 cells). Cells were used 24 hr after transfection. Adherent cells were harvested by incubating with 0.05% trypsin/EDTA for 5 min at 37° C. Following addition of DMEM/10% FBS to neutralize the trypsin, the cells were pelleted by centrifugation at 1100×g for 5 min at 4° C. and used for the experiments.
COS-Nox2, COS-Nox1/NOXO1/NOXA1, HEK-Nox5 and COS-22 cells were re-plated in OPTIMEM into 384-well white micro-plates (Greiner-Bio One GmbH, Germany) at a density of 2.5×10^3 cells/well for COS-Nox2 and 5×10^4 cells/well for all others. The cells were incubated at 37° C. in PBS containing […] L-012 for 10 min. Reaction was initiated by addition of 5 μM PMA in the case of Nox2 or 1 μM PMA/0.1 μM Ionomycin in the case of Nox5. Since Nox1 was constitutively active, Nox1-derived O2^•− was assessed by comparison to non-transfected cells (Cos22). Luminescence was quantified over time using a Biotek Synergy 4 Hybrid Multi-Mode Microplate Reader. The specificity of L-012 for O2^•− was confirmed by the addition of SOD (150 U/mL).
All data are expressed as means±SEM. IC50 values were determined using the GraphPad Prism software (GraphPad Software, San Diego, Calif.) for non-linear regression three-parameters, with constrain values of 100 and 0 for top and bottom, respectively, and assumes a Hill slope of 1.

cells = assay: Cytotoxicity assay (CytoTox-Glo); format: cell-based; conditions: highest concentration tested (25 and 50 μM tested, FIG. 5)
Procedure: The cytotoxic effect of compounds was tested using CytoTox-Glo kit (Promega, Madison, Wis.). This assay uses a luminogenic peptide substrate, the AAF-Glo™ Substrate, to measure dead-cell protease activity, which is released from cells that have lost membrane integrity. Cells were plated in 384-well plate at 2.5×10^3 cells/well in OPTIMEM, incubated for 15 min with the compounds at various concentrations and then carried out dead cell measurements according to manufacturer protocol. […] signals before and after the addition of digitonin were used to calculate the % of dead cells in each independent well.
Another undesirable side effect would be the reduction of ROS production in the assays due to cell death rather than an inhibition of Nox2. To verify that this was not the case for these tetrahydroisoquinolines, the effect of various concentrations of the compounds on cell viability was determined using a commercially available CytoTox-Glo assay (Promega). This assay measures the concentration of proteases released from cells that have lost membrane integrity (i.e., dead cells). Data are expressed as % of live cells in each independent well (=100−% dead cells).

C=C(C)CC1C2c3c(Br)cccc3C(CC2(C)C)N1S(C)(=O)=O (racemic) [Compound 14a, (±)-(1S,4R,9S)-5-Bromo-3,3-dimethyl-9-(2-methylallyl)-10-(methylsulfonyl)-1,2,3,4-tetrahydro-1,4-(epiminomethano)naphthalene]
IC50 (Nox1): > 100 µM

C=C(C)CC1C2c3c(-c4ccc(Cl)c(Cl)c4)cccc3C(CC2(C)C)N1Cc1ccc2c(c1)OCO2 (racemic) [Compound 12b, (±)-(1S,4R,9S)-10-(Benzo[d][1,3]dioxol-5-ylmethyl)-5-(3,4-dichlorophenyl)-3,3-dimethyl-9-(2-methylallyl)-1,2,3,4-tetrahydro-1,4-(epiminomethano)-naphthalene]
IC50 (Nox1): > 100 µM

C=C(C)CC1C2c3c(Br)cccc3C(CC2(C)C)N1S(=O)(=O)c1ccc(F)cc1 (racemic) [Compound 14b, (±)-(1S,4R,9S)-5-Bromo-10-((4-fluorophenyl)sulfonyl)-3,3-dimethyl-9-(2-methylallyl)-1,2,3,4-tetrahydro-1,4-(epiminomethano)naphthalene]
IC50 (Nox1): > 100 µM

C=C(C)CC1C2c3c(Br)cccc3C(CC2(C)C)N1Cc1cccs1 (racemic) [Compound 11h, (±)-(1S,4R,9S)-5-Bromo-3,3-dimethyl-9-(2-methylallyl)-10-(thiophen-2-ylmethyl)-1,2,3,4-tetrahydro-1,4-(epiminomethano)naphthalene]
Nox1 inhibitory activity (Nox1): virtually no effect
IC50 (Nox1): > 100 µM

C=C(C)CC1C2c3ccccc3C(CC2(C)C)N1Cc1cccc(F)c1 (racemic) [Compound 11a, (±)-(1S,4R,9S)-10-(3-Fluorobenzyl)-3,3-dimethyl-9-(2-methylallyl)-1,2,3,4-tetrahydro-1,4-(epiminomethano)naphthalene]
IC50 (Nox1): > 100 µM

C=C(C)CC1NC2CC(C)(C)C1c1c(-c3ccc(Cl)c(Cl)c3)cccc12 (racemic) [Compound 12a, (±)-(1S,4R,9S)-5-(3,4-Dichlorophenyl)-3,3-dimethyl-9-(2-methylallyl)-1,2,3,4-tetrahydro-1,4-(epiminomethano)naphthalene]
IC50 (Nox1): > 100 µM

C=C(C)CC1NC2CC(C)(C)C1c1ccccc12 (racemic) [Compound 8, (±)-(1S,4R,9S)-3,3-Dimethyl-9-(2-methylallyl)-1,2,3,4-tetrahydro-1,4-(epiminomethano)-naphthalene]
Nox1 inhibitory activity (Nox1): inactive
IC50 (Nox1): > 100 µM

C=C(C)CC1C2c3c(Br)cccc3C(CC2(C)C)N1Cc1ccc2c(c1)OCO2 (racemic) [Compound 11d, (±)-(1S,4R,9S)-10-(Benzo[d][1,3]dioxol-5-ylmethyl)-5-bromo-3,3-dimethyl-9-(2-methylallyl)-1,2,3,4-tetrahydro-1,4-(epiminomethano)naphthalene]
IC50 (Nox1): > 100 µM

CC(C)CC1NC2CC(C)(C)C1c1c(Br)cccc12 (racemic) [Compound 13]
Nox1 inhibitory activity (Nox1): retained inhibitory activity
IC50 (Nox1): 32 ± 18 µM
Effect on cell viability (cells): had any effect on cell viability

C=C(C)CC1C2c3c(Br)cccc3C(CC2(C)C)N1CCCCC (racemic) [Compound 11g, (±)-(1S,4R,9S)-5-Bromo-3,3-dimethyl-9-(2-methylallyl-10-pentyl-1,2,3,4-tetrahydro-1,4-(epiminomethano)naphthalene]
Nox1 inhibitory activity (Nox1): virtually no effect
IC50 (Nox1): > 100 µM

C=C(C)CC1C2c3c(Br)cccc3C(CC2(C)C)N1Cc1cccc(F)c1 (racemic) [Compound 11f, (±)-(1S,4R,9S)-5-Bromo-10-(3-fluorobenzyl)-3,3-dimethyl-9-(2-methylallyl)-1,2,3,4-tetrahydro-1,4-(epiminomethano)naphthalene]
IC50 (Nox1): > 100 µM

C=C(C)CC1C2c3c(Br)cccc3C(CC2(C)C)N1Cc1ccnc2ccccc12 (racemic) [Compound 11b, (±)-(1S,4R,9S)-5-Bromo-3,3-dimethyl-9-(2-methylallyl)-10-(quinolin-4-ylmethyl)-1,2,3,4-tetra-hydro-1,4-(epiminomethano)naphthalene]
IC50 (Nox1): > 100 µM

C=C(C)CC1NC2CC(C)(C)C1c1c(Br)cccc12 (racemic) [Compound 7, (±)-(1S,4R,9S)-5-Bromo-3,3-dimethyl-9-(2-methylallyl)-1,2,3,4-tetrahydro-1,4-(epimino-methano)-naphthalene]
Nox1 inhibitory activity (Nox1): active
IC50 (Nox1): 31 ± 0.7 µM
Effect on cell viability (cells): had any effect on cell viability

C=C(C)CC1C2c3c(Br)cccc3C(CC2(C)C)N1Cc1cc(C)on1 (racemic) [Compound 11e, (±)-3-(1S,4R,9S)-5-Bromo-3,3-dimethyl-9-(2-methylallyl)-1,2,3,4-tetrahydro-1,4-(epimino-methano) naphthalen-10-yl)methyl)-5-methylisoxazole]
IC50 (Nox1): > 100 µM

C=C(C)CC1C2c3c(Br)cccc3C(CC2(C)C)N1Cc1c[nH]c2ccccc12 (racemic) [Compound 11c, (±)-(1S,4R,9S)-10-((1H-Indol-3-yl)methyl)-5-bromo-3,3-dimethyl-9-(2-methylallyl)-1,2,3,4-tetrahydro-1,4-(epiminomethano)naphthalene]
IC50 (Nox1): > 100 µM

C=C(C)C[C@@H]1N[C@H]2CC(C)(C)[C@@H]1c1c(Br)ccc(Br)c12 [Compound 9]
Nox1 inhibitory activity (Nox1): active
IC50 (Nox1): 60 ± 36 µM
Effect on cell viability (cells): had any effect on cell viability

C=C(C)CC1C2c3c(-c4ccc(Cl)c(Cl)c4)cccc3C(CC2(C)C)N1CCCCC (racemic) [Compound 12c]
IC50 (Nox1): > 100 µM
